Measurements published in patent US20240279278A1, “NMU RECEPTOR 2 AGONISTS” (Boehringer Ingelheim International GmbH, priority 2023, published 2024).
Residues, ends and D or L forms follow the SMILES beside them.

Legend:
in vivo = experiment: in vivo; set-up: species or system NMRI mice; conditions: male, NMRI, mouse, iv
Procedure: Example 5: Pharmacokinetics Intravenous (iv) PK in Mouse Pharmacokinetic parameters of the test compounds were determined after intravenous administration to Naval Medical Research Institute (NMRI) mice. Male NMRI mice were obtained either from Charles River (Germany) or from Janvier (France) weighing approximately 30 g to 40 g. Mice were housed in standard cages with light cycle of 12-hour dark and 12-hour light. Standardized food and water were offered ad libitum to the animals during the whole experimental period. The respective peptide was dissolved in 50 mM phosphate buffer (pH 7.4) containing 3.5% mannitol. Intravenous doses of 30 nmol/kg were given via a tail vein. Serial blood samples were collected from the vena saphena into tubes containing EDTA as anticoagulant at different time points up to 48 hours post dosing. After centrifugation for approximately 5 minutes, plasma samples were transferred to 96-well Polymerase Chain Reaction (PCR) plates, immediately frozen and kept at approximately −20° C. until analyzed for plasma concentration by liquid chromatography mass spectrometry (LC-MS/MS). Individual plasma concentration-time profiles were analyzed by a non-compartmental approach, and the resulting pharmacokinetic parameters were determined.

[1] = Effect on acute food intake in normal NMRI mice; assay type: in vivo; conditions: male NMRI mice, single subcutaneous dose 100 nmol/kg, normalized to vehicle group
Procedure: Example 9: Pharmacodynamics Effect on Acute Food Intake in Normal NMRI Mice
Male NMRI mice were obtained from Charles River (Charles River, Research Models & Services Germany GmbH) or from JanVier (JanVier Labs, France) at 3 weeks of age. The animals were group housed 4 mice pr. cage under a 12/12 hours dark-light cycle, light off at 3 pm. Room temperature was controlled to 21° C.±1° C., with 60%±20% humidity. Animals had ad libitum access to regular rodent chow (KLIBA Nafag 3430 or Altromin 1324, Brogaarden, Denmark) and tap water. Animals were transferred at 6 weeks of age, 5-7 days before the start of the study to a real-time food intake monitoring system, HM-2 system (MBRose, Denmark), to allow acclimatization to experimental conditions. As the animals were uniquely identified with microchips, each individual animal was identified by its microchip upon entry and exit from the food channel. Randomization of the mice for each study group (n=8-11) was based on body weight measured the day before the start of the study. A vehicle-treated (50 mM acetate buffer pH 7.4 with 3.5% mannitol) group was included in each experiment. Six hours before the start of the night phase animals were fasted. One hour before the dark phase animals were dosed once subcutaneously with test peptide. Food intake was reported hourly for a period of 24 hours. The food intake of the treated groups was normalized (in %) to the average food intake of the group receiving vehicle (table 10). Statistical significance was evaluated using One-way analysis of variance with Bonferroni's multiple comparison test. P<0.05 was considered statistically significant.

Structure (SMILES)	MRT (in vivo) [h]	MRT (in vivo; 30 nmol/kg) [h]	Acute Food Intake 24 h [1] [% vehicle]
CCCC[C@H](NC(=O)[C@H](CC(C)C)N(C)C(=O)[C@H](Cc1ccccc1)NC(=O)[C@H](Cc1ccc(O)cc1)NC(=O)CN1CCN(CCNC(=O)CN(C)C(=O)CN(C)C(=O)CN(C)C(=O)CN(C)C(=O)CN(C)C(=O)CN(C)C(=O)CN(C)C(=O)CN(C)C(=O)CN(C)C(=O)CN(C)C(=O)CN(C)C(=O)CN(C)C(=O)CN(C)C(=O)CN(C)C(=O)CN(C)C(=O)CC[C@H](NC(=O)CC[C@H](NC(=O)CC[C@H](NC(=O)CCCCCCCCCCCCCCCCCCC(=O)O)C(=O)O)C(=O)O)C(=O)O)CC1)C(=O)N[C@@H](CCCN)C(=O)N1CCC[C@H]1C(=O)N[C@@H](CCCNC(=N)N)C(=O)NCC(N)=O [Compound 1, C20DA-gGlu3-Sar15-AEPipAc-Tyr-Phe-NMeLeu-Nle-Orn-Pro-Arg-Gly-NH2] (HELM PEPTIDE1{[O=C(O)CCCCCCCCCCCCCCCCCCC(=O)[*:2]].[gGlu].[gGlu].[gGlu].[Sar].[Sar].[Sar].[Sar].[Sar].[Sar].[Sar].[Sar].[Sar].[Sar].[Sar].[Sar].[Sar].[Sar].[Sar].[O=C(CN1CCN(CCN[*:1])CC1)[*:2]].Y.F.[meL].[Nle].[Orn].P.R.G.[am]}$$$$V2.0)	38.1	38.1	31
CCCC[C@H](NC(=O)[C@H](CC(C)C)N(C)C(=O)[C@H](Cc1ccccc1)NC(=O)[C@H](Cc1ccc(O)cc1)NC(=O)CN1CCN(CCNC(=O)CN(C)C(=O)CN(C)C(=O)CN(C)C(=O)CN(C)C(=O)CN(C)C(=O)CN(C)C(=O)CN(C)C(=O)CN(C)C(=O)CN(C)C(=O)CN(C)C(=O)CN(C)C(=O)CN(C)C(=O)CN(C)C(=O)CN(C)C(=O)CN(C)C(=O)CC[C@H](NC(=O)CC[C@H](NC(=O)CC[C@H](NC(=O)CCCCCCCCCCCCCCCCC(=O)O)C(=O)O)C(=O)O)C(=O)O)CC1)C(=O)N[C@@H](CCCNC(=N)N)C(=O)N1CCC[C@H]1C(=O)N[C@@H](CCCNC(=N)N)C(=O)NCC(N)=O [Compound 7, C18DA-gGlu3-Sar15-AEPipAc-Tyr-Phe-NMeLeu-Nle-Arg-Pro-Arg-Gly-NH2] (HELM PEPTIDE1{[O=C(O)CCCCCCCCCCCCCCCCC(=O)[*:2]].[gGlu].[gGlu].[gGlu].[Sar].[Sar].[Sar].[Sar].[Sar].[Sar].[Sar].[Sar].[Sar].[Sar].[Sar].[Sar].[Sar].[Sar].[Sar].[O=C(CN1CCN(CCN[*:1])CC1)[*:2]].Y.F.[meL].[Nle].R.P.R.G.[am]}$$$$V2.0)	17.4	17.4	46
CCCC[C@H](NC(=O)[C@H](CC(C)C)N(C)C(=O)[C@H](Cc1ccccc1)NC(=O)[C@H](Cc1ccc(O)cc1)NC(=O)CN1CCN(CCNC(=O)CN(C)C(=O)CN(C)C(=O)CN(C)C(=O)CN(C)C(=O)CN(C)C(=O)CN(C)C(=O)CN(C)C(=O)CN(C)C(=O)CN(C)C(=O)CN(C)C(=O)CN(C)C(=O)CN(C)C(=O)CN(C)C(=O)CN(C)C(=O)CN(C)C(=O)CC[C@H](NC(=O)CC[C@H](NC(=O)CC[C@H](NC(=O)CCCCCCCCCCCCCCCCC(=O)O)C(=O)O)C(=O)O)C(=O)O)CC1)C(=O)N[C@@H](CCN)C(=O)N1CCC[C@H]1C(=O)N[C@@H](CCCNC(=N)N)C(=O)NCC(N)=O [Compound 26, C18DA-gGlu3-Sar15-AEPipAc-Tyr-Phe-NMeLeu-Nle-Dbu-Pro-Arg-Gly-NH2] (HELM PEPTIDE1{[O=C(O)CCCCCCCCCCCCCCCCC(=O)[*:2]].[gGlu].[gGlu].[gGlu].[Sar].[Sar].[Sar].[Sar].[Sar].[Sar].[Sar].[Sar].[Sar].[Sar].[Sar].[Sar].[Sar].[Sar].[Sar].[O=C(CN1CCN(CCN[*:1])CC1)[*:2]].Y.F.[meL].[Nle].[Dab].P.R.G.[am]}$$$$V2.0)		12.4	37
CCCC[C@H](NC(=O)[C@H](CC(C)C)N(C)C(=O)[C@H](Cc1ccccc1)NC(=O)[C@H](Cc1ccc(O)cc1)NC(=O)CN1CCN(CCNC(=O)CN(C)C(=O)CN(C)C(=O)CN(C)C(=O)CN(C)C(=O)CN(C)C(=O)CN(C)C(=O)CN(C)C(=O)CN(C)C(=O)CN(C)C(=O)CN(C)C(=O)CN(C)C(=O)CN(C)C(=O)CN(C)C(=O)CN(C)C(=O)CN(C)C(=O)CC[C@H](NC(=O)CC[C@H](NC(=O)CC[C@H](NC(=O)CCCCCCCCCCCCCCCCCCC(=O)O)C(=O)O)C(=O)O)C(=O)O)CC1)C(=O)N[C@@H](CCN)C(=O)N1CCC[C@H]1C(=O)N[C@@H](CCCNC(=N)N)C(=O)NCC(N)=O [Compound 42, C20DA-gGlu3-Sar15-AEPipAc-Tyr-Phe-NMeLeu-Nle-Dbu-Pro-Arg-Gly-NH2] (HELM PEPTIDE1{[O=C(O)CCCCCCCCCCCCCCCCCCC(=O)[*:2]].[gGlu].[gGlu].[gGlu].[Sar].[Sar].[Sar].[Sar].[Sar].[Sar].[Sar].[Sar].[Sar].[Sar].[Sar].[Sar].[Sar].[Sar].[Sar].[O=C(CN1CCN(CCN[*:1])CC1)[*:2]].Y.F.[meL].[Nle].[Dab].P.R.G.[am]}$$$$V2.0)		31.2	41
CCCC[C@H](NC(=O)[C@H](CC(C)C)N(C)C(=O)[C@H](Cc1ccccc1)NC(=O)[C@H](Cc1ccc(O)cc1)NC(=O)CN1CCN(CCNC(=O)CN(C)C(=O)CN(C)C(=O)CN(C)C(=O)CN(C)C(=O)CN(C)C(=O)CN(C)C(=O)CN(C)C(=O)CN(C)C(=O)CN(C)C(=O)CN(C)C(=O)CN(C)C(=O)CN(C)C(=O)CN(C)C(=O)CN(C)C(=O)CN(C)C(=O)CC[C@H](NC(=O)CC[C@H](NC(=O)CC[C@H](NC(=O)CCCCCCCCCCCCCCCCCCC(=O)O)C(=O)O)C(=O)O)C(=O)O)CC1)C(=O)N[C@@H](CCN)C(=O)N(C)[C@@H](C)C(=O)N[C@@H](CCCNC(=N)N)C(=O)NCC(N)=O [Compound 43, C20DA-gGlu3-Sar15-AEPipAc-Tyr-Phe-NMeLeu-Nle-Dbu-NMeAla-Arg-Gly-NH2] (HELM PEPTIDE1{[O=C(O)CCCCCCCCCCCCCCCCCCC(=O)[*:2]].[gGlu].[gGlu].[gGlu].[Sar].[Sar].[Sar].[Sar].[Sar].[Sar].[Sar].[Sar].[Sar].[Sar].[Sar].[Sar].[Sar].[Sar].[Sar].[O=C(CN1CCN(CCN[*:1])CC1)[*:2]].Y.F.[meL].[Nle].[Dab].[meA].R.G.[am]}$$$$V2.0)		37.7	28
